Drawing on patent US4714705A, “4-nitrogen substituted isoquinolinol compounds having cardiotonic, phosphodiesterase fraction III inhibiting properties and/or renal vasodilating properties” (Ortho Pharmaceutical Corporation, priority 1986, dated 1987), this text covers change in vivo for 27 compounds.

The test system of this assay is adult mongrel dogs. Description: Renal vasodilating activity in anesthetized dogs. Format: in vivo, dog (adult mongrel). The note with it: Canis lupus familiaris; for change in vivo at 1.2 mg/kg: 1.2 mg/kg intravenous; for change in vivo at 0.2 mg/kg: 0.2 mg/kg intravenous. The protocol:
Goldberg et al, J. Pharmacol. Exp. Ther., 163, 188 (1968), performed an investigation of the structural requirements for dopamine-like renal vasodilation of phenethylamines and apmorphine. The following procedure is a variation of the assay described in that report.
Adult mongrel dogs were anesthetized and surgically prepared for electromagnetic measurement of renal artery blood flow. A carotid artery was cannulated for measuring arterial blood pressure, and drugs were administered intravenously or intraarterially (via the renal artery). Heart rate was monitored with a cardiotachometer. Renal vascular resistance was calculated as the ratio of mean arterial blood pressure/renal artery blood flow. Dopamine was infused intravenously at […] for ten minutes (at an infusion rate of about 1 ml/min) to determine responsiveness of each dog to renal dopamine receptor stimulation. Cumulative dose-response data were obtained by infusing a compound of this invention at progressively increasing (usually three-fold) infusion rates, esch dose being infused for five minutes. The maximum percent increase from pre-drug control in renal artery blood flow (or a decrease in renal vascular resistance) was determined for each infusion dose.
RBF values are percent increase in renal blood flow. RVR values are percent increase in renal vascular resistance. MABP and HR are increases in mean arterial blood pressure and heart rate, respectively, relative to controls.

The mark [1] stands for this setting: iv, read-out: HR, percent change in heart rate.
Setting [2] is: 6.2 mg/kg intravenous, relative to controls, read-out: HR, percent change in heart rate.
[3] abbreviates: 6.2 mg/kg intravenous, relative to controls, read-out: MABP, mean arterial blood pressure.
Setting [4] is: 6.2 mg/kg intravenous, relative to controls, read-out: RBF, renal blood flow.
Where [5] appears, read: 6.2 mg/kg intravenous, relative to controls, read-out: RVR, renal vascular resistance.
The mark [6] stands for this setting: relative to controls, read-out: RBF, renal blood flow.
[7] abbreviates: relative to controls, read-out: RVR, renal vascular resistance.
Where [8] appears, read: relative to controls, read-out: HR, percent change in heart rate.
The mark [9] stands for this setting: relative to controls, read-out: MABP, mean arterial blood pressure.

The structures appear in SMILES notation. Read-outs that look alike come from different tables or passages of the source.

Take `COc1cc2c(C)nc(O)c(NC(=O)NCCCl)c2cc1OC` [BAY]: the change in vivo at 6.2 mg/kg is, setting by setting: under setting [1], 27%; (iv, read-out: MABP, mean arterial blood pressure) 19%; (iv, read-out: RBF, renal blood flow) 85%; (iv, read-out: RVR, renal vascular resistance) -35%.

As to `COc1cc2c(C)nc(O)c(NC(=O)NC(C)(C)C)c2cc1OC` [BAU], the change in vivo at 6.2 mg/kg runs as follows: under setting [2], 4%; under setting [3], -3%; under setting [4], 12%; under setting [5], -13%.

In the case of `COc1cc2c(C)nc(O)c(NC(=O)Nc3ccc([N+](=O)[O-])cc3)c2cc1OC` [BAR], the change in vivo at 1.2 mg/kg was 9% under setting [6] and -8% under setting [7].

For the compound `COc1ccc(NC(=O)Nc2c(O)nc(C)c3cc(OC)c(OC)cc23)cc1` [BP, 4-(N'-para-methoxyphenylureido)-3-hydroxy-6,7-dimethoxy-1-methylisoquinoline], the change in vivo at 6.2 mg/kg is, setting by setting: under setting [2], 2%; under setting [3], 12%; under setting [4], 68%; under setting [5], -32%.

Regarding `CCOc1cc2c(NC(=O)Nc3ccc(SC)cc3)c(O)nc(C)c2cc1OC` [BBA], the change in vivo at 6.2 mg/kg is, setting by setting: under setting [2], 2%; under setting [3], 23%; under setting [4], 53%; under setting [5], -17%.

In the case of `COc1cc2c(C)nc(O)c(NC(=O)NC3CCCCC3)c2cc1OC` [BBE], the change in vivo at 1.2 mg/kg is, setting by setting: under setting [8], 2%; under setting [9], 3%; under setting [6], 24%; under setting [7], -16%.

Take `COc1cc2c(C)nc(O)c(NC(=O)Nc3ccc(N)cc3)c2cc1OC` [BBZ]: the change in vivo at 1.2 mg/kg was 8% under setting [8], 5% under setting [9], 22% under setting [6] and -12% under setting [7].

As for `COc1ccc(NC(=O)Nc2c(O)nc(C)c3cc(OC)c(OC)cc23)cc1OC` [BBL], the change in vivo at 1.2 mg/kg by setting is: under setting [8], -1%; under setting [9], 5%; under setting [6], 13%; under setting [7], -8%.

For the compound `COc1cc2c(C)nc(O)c(NC(=O)Nc3cccc(C(F)(F)F)c3)c2cc1OC` [BAG], the change in vivo at 6.2 mg/kg is, setting by setting: under setting [2], -10%; under setting [3], 2%; under setting [4], 23%; under setting [5], -16%.

With `CCOc1cc2c(NC(=O)Nc3ccc(OC)cc3)c(O)nc(C)c2cc1OC` [BAV], the change in vivo at 6.2 mg/kg by setting is: under setting [2], 9%; under setting [3], -5%; under setting [4], 35%; under setting [5], -29%.

For the compound `COc1cc2c(C)nc(O)c(NC(=O)Nc3ccc([S+](C)[O-])cc3)c2cc1OC` (stereo not drawn) [Compound BCB, Hydrate], the change in vivo at 1.2 mg/kg was -1% under setting [8], 5% under setting [9], 12% under setting [6] and -6% under setting [7].

For `COc1cc2c(C)nc(O)c(NC(N)=O)c2cc1OC` [Compound BM, 6,7-Dimethoxy-3-hydroxy-1-methyl-4-ureidoisoquinoline], the change in vivo at 6.2 mg/kg is -10% under setting [2], 18% under setting [3], 59% under setting [4] and -23% under setting [5].

Regarding `COC(=O)Nc1c(O)nc(C)c2cc(OC)c(OC)cc12` [BBR], the change in vivo at 6.2 mg/kg under setting [2] came out at 27%, the change in vivo at 6.2 mg/kg under setting [3] was -7%, the change in vivo at 6.2 mg/kg under setting [4] worked out at 30% and the change in vivo at 6.2 mg/kg under setting [5] was -29%.

Take `COc1cc2c(C)nc(O)c(NC(=O)Nc3cccc(Cl)c3)c2cc1OC` [BAF]: the change in vivo at 6.2 mg/kg is 4% under setting [2], 30% under setting [4] and -20% under setting [5].

Consider `COc1cc2c(C)nc(O)c(NC(=O)NCCc3ccccc3)c2cc1OC` [BBM], for which the change in vivo at 0.2 mg/kg is, setting by setting: under setting [8], -1%; under setting [6], 12%; under setting [7], -10%.

Take `COc1ccc(NC(=O)Nc2c(O)nc(C)c3cc(OC)c(OC)cc23)c(OC)c1` [BAP]: the change in vivo at 1.2 mg/kg under setting [8] was -1%, the change in vivo at 1.2 mg/kg under setting [9] was -14%, the change in vivo at 1.2 mg/kg under setting [6] was 17% and the change in vivo at 1.2 mg/kg under setting [7] is -26%.

Turning to `CCNC(=O)Nc1c(O)nc(C)c2cc(OC)c(OC)cc12` [BCD], the change in vivo at 1.2 mg/kg by setting is: under setting [6], 28%; under setting [7], -22%.

Consider `COc1ccc(NC(=O)Nc2c(O)nc(C)c3cc(OC)ccc23)cc1` [BBS], for which the change in vivo at 1.2 mg/kg was 5% under setting [8], 2% under setting [9], 17% under setting [6] and -4% under setting [7].

For the compound `CNC(=O)Nc1c(O)nc(C)c2cc(OC)c(OC)cc12` [BBY], the change in vivo at 1.2 mg/kg is, setting by setting: under setting [8], -4%; under setting [9], 6%; under setting [6], 21%; under setting [7], -12%.

As for `C=CCNC(=O)Nc1c(O)nc(C)c2cc(OC)c(OC)cc12` [BAO, 4-(N'-allylureido)-3-hydroxy-6,7-dimethoxy-1-methylisoquinoline], the change in vivo at 1.2 mg/kg is, setting by setting: under setting [8], -3%; under setting [9], 8%; under setting [6], 96%; under setting [7], -44%.

As to `CCCCNC(=O)Nc1c(O)nc(C)c2cc(OC)c(OC)cc12` [Compound BR, 4-(N'-n-Butylureido)-3-hydroxy-6,7-dimethoxy-1-methylisoquinoline Hemihydrate], the change in vivo at 6.2 mg/kg is, setting by setting: under setting [2], -9%; under setting [3], -1%; under setting [4], 128%; under setting [5], -56%.

`CCOc1cc2c(C)nc(O)c(NC(N)=O)c2cc1OC` [BS]: the change in vivo at 6.2 mg/kg is, setting by setting: under setting [2], 4%; under setting [4], 33%; under setting [5], -24%.

On to `COc1cc2c(C)nc(O)c(NC(=O)Nc3ccc(C(F)(F)F)cc3)c2cc1OC` [BAD], for which the change in vivo at 6.2 mg/kg under setting [1] stood at 10%, the change in vivo at 6.2 mg/kg under setting [3] was 4%, the change in vivo at 6.2 mg/kg under setting [4] was found to be 49% and the change in vivo at 6.2 mg/kg under setting [5] is -29%.

In the case of `CCOc1cc2c(C)nc(O)c(NC(=O)NCc3ccccc3)c2cc1OC` [BAJ], the change in vivo at 6.2 mg/kg by setting is: under setting [2], -6%; under setting [3], -11%; under setting [4], 54%; under setting [5], -32%.

As to `COc1cc2c(C)nc(O)c(NC(=O)Nc3ccc(C#N)cc3)c2cc1OC` [BBX], the change in vivo at 1.2 mg/kg reads like this: under setting [8], -11%; under setting [9], -11%; under setting [6], 12%; under setting [7], -20%.

As for `CCCCCCCCNC(=O)Nc1c(O)nc(C)c2cc(OC)c(OC)cc12` [BBF], the change in vivo at 1.2 mg/kg is, setting by setting: under setting [8], -14%; under setting [6], 19%; under setting [7], -24%.

As for `COc1cccc(NC(=O)Nc2c(O)nc(C)c3cc(OC)c(OC)cc23)c1` [BAE], the change in vivo at 6.2 mg/kg under setting [2] is -2%, the change in vivo at 6.2 mg/kg under setting [4] is 58% and the change in vivo at 6.2 mg/kg under setting [5] is -36%.
